Experiments:
[1] = biological target: T1, MYT1 protein (Homo sapiens (Human), UniProt Q99640); assay: Test for binding to ATP binding site of MYT1 (Kinase Tracer 178 / Eu-Anti-GST antibody TR-FRET); details: ATP binding site of MYT1, 30 minutes at room temperature
[2] = biological target: T1, MYT1 protein; assay: MYT1 kinase activity inhibition test (ELISA, phosphorylation of Y15 of CDK1); format: biochemical; details: phosphorylation level of Y15 of CDK1 protein caused by MYT1 protein, 60 minutes
Procedure, shortened: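 Recombinant human MYT1 (5 nM working solution) was incubated 60 min at room temperature with compound and ATP (83.3 μM working solution) on a CDK1-coated ELISA plate. CDK1 Y15 phosphorylation was detected with HRP anti-phosphotyrosine, read as A450 minus A590. Inhibition was normalised to no-compound (100%) and no-enzyme (0%) signals to derive IC50.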

[3] = system: LU65; assay: Cytotoxicity test with pemetrexed upon addition of each example compound (CellTiter-Glo); format: cell-based, human; details: combination with pemetrexed, LU65 cells, 7 days; maximum value, at the MYT1 inhibitor and pemetrexed concentrations
Procedure, shortened: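 LU65 lung cancer cells (RB1 S82* truncation, reduced RB1 function) in RPMI-1640/10% FBS were treated with pemetrexed plus each compound over concentration series, 7 days at 37 °C. ATP measured by CellTiter-Glo luminescence; survival relative to DMSO after blank subtraction, cytotoxicity = 100% minus survival.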

T1 sequence (Q99640 whole entry): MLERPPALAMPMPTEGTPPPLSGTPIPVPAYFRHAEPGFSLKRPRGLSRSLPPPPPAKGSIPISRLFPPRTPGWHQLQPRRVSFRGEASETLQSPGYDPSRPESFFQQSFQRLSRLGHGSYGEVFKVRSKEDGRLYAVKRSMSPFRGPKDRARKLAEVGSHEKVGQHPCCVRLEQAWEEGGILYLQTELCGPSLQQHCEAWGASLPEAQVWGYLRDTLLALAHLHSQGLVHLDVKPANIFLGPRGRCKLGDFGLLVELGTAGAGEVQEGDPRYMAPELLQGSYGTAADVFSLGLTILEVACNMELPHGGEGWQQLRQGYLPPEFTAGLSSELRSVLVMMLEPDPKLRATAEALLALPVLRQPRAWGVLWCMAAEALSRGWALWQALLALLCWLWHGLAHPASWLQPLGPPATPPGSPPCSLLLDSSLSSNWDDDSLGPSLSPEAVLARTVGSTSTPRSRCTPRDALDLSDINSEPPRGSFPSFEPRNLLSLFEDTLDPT

| IC50 [1] | IC50 [2] | SMILES | Bliss Score (Max) [3] | HSA Score (MAX) [3] |
| --- | --- | --- | --- | --- |
| 4.9 nM | 11 nM | Nc1c(-c2ccc(F)c3[nH]ncc23)c2cc([C@H]3CC[C@@H](O)CC3)c3ncccc3c2[nH]c1=O [Compound C141, 3-Amino-4-(7-fluoro-1H-indazol-4-yl)-6-((1s, 4s)-4-hydroxycyclohexyl)-1H-1,7-phenanthrolin-2-one] | 78% | 72% |
| 5.8 nM | 0.6 nM | Nc1c(-c2ccc(Cl)c3[nH]ncc23)c2cc(Cl)ccc2[nH]c1=O [Compound A59, 3-Amino-6-chloro-4-(7-chloro-1H-indazol-4-yl)-1H-quinolin-2-one] | 55% | 58% |
| 2 nM | < 4.6 nM | CN1CCC(c2cc3c(-c4ccc(F)c5[nH]ncc45)c(N)c(=O)[nH]c3c3cccnc23)CC1 [Compound C138, 3-Amino-4-(7-fluoro-1H-indazol-4-yl)-6-(1-methylpiperidin-4-yl)-1H-1,7-phenanthrolin-2-one] | 73% | 73% |
| 2.3 nM | < 4.6 nM | Nc1c(-c2ccc(F)c3[nH]ncc23)c2cc(C3CCN(C4COC4)CC3)c3ncccc3c2[nH]c1=O [Compound C135, 3-Amino-4-(7-fluoro-1H-indazol-4-yl)-6-[1-(oxetan-3-yl)piperidin-4-yl]-1H-1,7-phenanthrolin-2-one] | 48% | 58% |
| 2.5 nM | 0.34 nM | Cc1cc2c(-c3cc(F)c(F)c4[nH]ncc34)c(N)c(=O)[nH]c2c2cccnc12 [Compound C190, 3-amino-4-(6,7-difluoro-1H-indazol-4-yl)-6-methyl-1H-1,7-phenanthrolin-2-one] | 48% | 66% |
| 6.2 nM | 6.4 nM | Nc1c(-c2cccc3[nH]ncc23)c2cc(C3CC3)c3ccccc3c2[nH]c1=O [Compound B49, 3-amino-6-cyclopropyl-4-(1H-indazol-4-yl)-1H-benzo[h]quinolin-2-one] | 86% | 84% |
| 0.91 nM | 0.086 nM | Nc1c(-c2ccc(F)c3[nH]ncc23)c2cc(O[C@H]3C[C@H](F)C3)c3nccnc3c2[nH]c1=O [Compound G16, 8-Amino-5-((1,3r)-3-fluorocyclobutyl)oxy-7-(7-fluoro-1H-indazol-4-yl)-10H-pyrido[2,3-f]quinoxalin-9-one] | 50% | 58% |
| 3.8 nM | < 4.6 nM | CC(C)(O)C#Cc1cc2c(-c3ccc(F)c4[nH]ncc34)c(N)c(=O)[nH]c2c2cccnc12 [Compound C102, 3-Amino-4-(7-fluoro-1H-indazol-4-yl)-6-(3-hydroxy-3-methylbut-1-inyl)-1H-1,7-phenanthrolin-2-one] | 36% | 49% |
| 10 nM | 1.1 nM | Nc1c(-c2ccc(F)c3[nH]ncc23)c2cc(C3CCC3)c3ncccc3c2[nH]c1=O [Compound C91, 3-Amino-6-cyclobutyl-4-(7-fluoro-1H-indazol-4-yl)-1H-1,7-phenanthrolin-2-one] | 59% | 61% |
| 3.4 nM | 16 nM | Nc1c(-c2ccc(F)c3[nH]ncc23)c2cc(C3CCNC3)c3ncccc3c2[nH]c1=O.O=CO (stereo not drawn) [Compound C146, 3-Amino-4-(7-fluoro-1H-indazol-4-yl)-6-pyrrolidin-3-yl-1H-1,7-phenanthrolin-2-one; formate] | 44% | 44% |
| 7 nM | 0.32 nM | Nc1c(-c2ccc(Cl)c3[nH]ncc23)c2ccc3ncccc3c2[nH]c1=O [Compound C144, 3-Amino-4-(7-chloro-1H-indazol-4-yl)-1H-1,7-phenanthrolin-2-one] | 39% | 47% |
| 2.4 nM | 0.1 nM | CCOc1cc2c(-c3cc(F)c(F)c4[nH]ncc34)c(N)c(=O)[nH]c2c2cccnc12 [Compound C67, 3-Amino-4-(6,7-difluoro-1H-indazol-4-yl)-6-ethoxy-1H-1,7-phenanthrolin-2-one] | 77% | 79% |
| 7.3 nM | 0.52 nM | Nc1c(-c2cccc(O)c2)c2cc(C3CC3)c3ccccc3c2[nH]c1=O [Compound B3, 3-Amino-6-cyclopropyl-4-(3-hydroxyphenyl)-1H-benzo[h]quinolin-2-one] | 78% | 77% |
| 2.4 nM | 7 nM | CC(=O)c1cc2c(-c3ccc(F)c4[nH]ncc34)c(N)c(=O)[nH]c2c2cccnc12 [Compound C200, 6-Acetyl-3-amino-4-(7-fluoro-1H-indazol-4-yl)-1H-1,7-phenanthrolin-2-one] | 44% | 56% |
| 4.4 nM | < 0.17 nM | Cn1cc(-c2cc3c(-c4ccc(F)c5[nH]ncc45)c(N)c(=O)[nH]c3c3cccnc23)cn1 [Compound C88, 3-Amino-4-(7-fluoro-1H-indazol-4-yl)-6-(1-methylpyrazol-4-yl)-1H-1,7-phenanthrolin-2-one] | 53% | 61% |
| 6.1 nM | 7.1 nM | Nc1c(-c2ccc(F)c3[nH]ncc23)c2cc(C3CCC4(CC3)OCCO4)c3ncccc3c2[nH]c1=O.O=C(O)C(F)(F)F [Compound C101, 3-Amino-6-(1,4-dioxaspiro[4.5]decan-8-yl)-4-(7-fluoro-1H-indazol-4-yl)-1H-1,7-phenanthrolin-2-one 2,2,2-trifluoroacetate] | 46% | 64% |
| 1.5 nM | 0.092 nM | COc1cc2c(-c3cc(F)c(Cl)c4[nH]ncc34)c(N)c(=O)[nH]c2c2cccnc12 [Compound C76, 3-Amino-4-(7-chloro-6-fluoro-1H-indazol-4-yl)-6-methoxy-1H-1,7-phenanthrolin-2-one] | 68% | 67% |
| 3.3 nM | 19 nM | Nc1c(-c2ccc(F)c3[nH]ncc23)c2cc(C3CCC(=O)CC3)c3ncccc3c2[nH]c1=O [Compound C139, 3-Amino-4-(7-fluoro-1H-indazol-4-yl)-6-(4-oxocyclohexyl)-1H-1,7-phenanthrolin-2-one] | 46% | 54% |
| 14 nM | 0.42 nM | CC#Cc1cc2c(-c3ccc(F)c4[nH]ncc34)c(N)c(=O)[nH]c2c2cccnc12 [Compound C90, 3-Amino-4-(7-fluoro-1H-indazol-4-yl)-6-prop-1-inyl-1H-1,7-phenanthrolin-2-one] | 50% | 60% |
| 2.1 nM | 6.2 nM | Nc1c(-c2c(F)ccc3[nH]ncc23)c2cc(C3CC3)c3ncccc3c2[nH]c1=O (racemic) [Compound C156, 3-Amino-6-cyclopropyl-4-(5-fluoro-1H-indazol-4-yl)-1H-1,7-phenanthrolin-2-one] | 51% | 59% |
| 18 nM | 2.5 nM | Cl.Nc1c(-c2cccc3[nH]ncc23)c2cc(C3CC3)c3cc(F)ccc3c2[nH]c1=O [Compound B48, 3-Amino-6-cyclopropyl-8-fluoro-4-(1H-indazol-4-yl)-1H-benzo[h]quinolin-2-one; hydrochloride] | 66% | 70% |
| 3.4 nM | 8.3 nM | CC(C)N1CCC(c2cc3c(-c4ccc(F)c5[nH]ncc45)c(N)c(=O)[nH]c3c3cccnc23)CC1.O=CO [Compound C136, 3-Amino-4-(7-fluoro-1H-indazol-4-yl)-6-(1-propan-2-ylpiperidin-4-yl)-1H-1,7-phenanthrolin-2-one; formate] | 45% | 57% |
| 2.3 nM | 0.24 nM | Nc1c(-c2cc(F)c(Cl)c3[nH]ncc23)c2cc(C3CC3)c3ncccc3c2[nH]c1=O [Compound C195, 3-Amino-4-(7-chloro-6-fluoro-1H-indazol-4-yl)-6-cyclopropyl-1H-1,7-phenanthrolin-2-one] | 52% | 65% |
| 3 nM | 0.26 nM | Nc1c(-c2ccc(F)c3[nH]ncc23)c2ccc3ccccc3c2[nH]c1=O [Compound B32, 3-Amino-4-(7-fluoro-1H-indazol-4-yl)-1H-benzo[h]quinolin-2-one] | 52% | 63% |
| 3.2 nM | 0.083 nM | COc1cc2c(-c3cc(F)c(F)c4[nH]ncc34)c(N)c(=O)[nH]c2c2cccnc12 [Compound C65, 3-Amino-4-(6,7-difluoro-1H-indazol-4-yl)-6-methoxy-1H-1,7-phenanthrolin-2-one] | 53% | 58% |
| 9.3 nM | 0.83 nM | Nc1c(-c2cccc3[nH]ncc23)c2cc(C3CC3)c3ccncc3c2[nH]c1=O [Compound Q1, 3-Amino-6-cyclopropyl-4-(1H-indazol-4-yl)-1H-1,9-phenanthrolin-2-one] | 52% | 58% |
| 2.4 nM | 0.2 nM | Nc1c(-c2ccc(F)c3[nH]ncc23)c2ccc3ncccc3c2[nH]c1=O [Compound C83, 3-Amino-4-(7-fluoro-1H-indazol-4-yl)-1H-1,7-phenanthrolin-2-one] | 54% | 66% |

Source: patent publication US20260062412A1, “NITROGEN-CONTAINING HETEROCYCLIC COMPOUND HAVING MYT1 INHIBITORY ACTIVITY” (CHUGAI SEIYAKU KABUSHIKI KAISHA, priority 2023, published 2026)
